Reference: patent publication EP2948433B1, “ATGLISTATIN AS LIPASE INHIBITOR” (Technische Universität Graz, priority 2013, dated 2014)

Tests used:
AML-12 mouse hepatocytes = assay: MTT-based in vitro viability (toxicity) test; assay type: cell-based; details: at concentrations ≥100 µM
Experimental: Toxicity test for Atglistatin in AML-12 mouse hepatocytes. For MTT-based in vitro viability assays, cells were seeded at an initial density of 1x10^4 cells per well in 96-well plates and cultured under standard conditions for twenty-four hours. The next day, cells were pretreated with different concentrations of Atglistatin dissolved in DMSO or Cisplatin dissolved in dimethylformamide (DMF) (Sigma-Aldrich) as positive control for two hours. Medium was replaced by an identical fresh medium and incubated again for the indicated timepoints. Thereafter cells were incubated for 3 hours with 100 µl Thiazolyl Blue Tetrazolium Bromide (MTT). The resulting violet formazan crystals were dissolved by adding 100 µl of MTT Solubilization Solution (0.1% NP-40, 4 mM HCl and anhydrous isopropanol). After complete dissolution of the formazan product, absorbance was measured at 595 nm and 690 nm. The values obtained at 690 nm were subtracted from the 595 nm measurements.

murine HSL = target: T1, murine HSL (Mus musculus, UniProt P54310); assay: HSL activity, overexpressed in COS-7 lysates, triolein substrate; assay type: biochemical; details: Fig. 2C
T1 construct: His-tag (vector pcDNA4/HisMax); made in house; host or cells: COS-7 cells, transient transfection, 1,000 x g lysate
T1 sequence (P54310 1-759): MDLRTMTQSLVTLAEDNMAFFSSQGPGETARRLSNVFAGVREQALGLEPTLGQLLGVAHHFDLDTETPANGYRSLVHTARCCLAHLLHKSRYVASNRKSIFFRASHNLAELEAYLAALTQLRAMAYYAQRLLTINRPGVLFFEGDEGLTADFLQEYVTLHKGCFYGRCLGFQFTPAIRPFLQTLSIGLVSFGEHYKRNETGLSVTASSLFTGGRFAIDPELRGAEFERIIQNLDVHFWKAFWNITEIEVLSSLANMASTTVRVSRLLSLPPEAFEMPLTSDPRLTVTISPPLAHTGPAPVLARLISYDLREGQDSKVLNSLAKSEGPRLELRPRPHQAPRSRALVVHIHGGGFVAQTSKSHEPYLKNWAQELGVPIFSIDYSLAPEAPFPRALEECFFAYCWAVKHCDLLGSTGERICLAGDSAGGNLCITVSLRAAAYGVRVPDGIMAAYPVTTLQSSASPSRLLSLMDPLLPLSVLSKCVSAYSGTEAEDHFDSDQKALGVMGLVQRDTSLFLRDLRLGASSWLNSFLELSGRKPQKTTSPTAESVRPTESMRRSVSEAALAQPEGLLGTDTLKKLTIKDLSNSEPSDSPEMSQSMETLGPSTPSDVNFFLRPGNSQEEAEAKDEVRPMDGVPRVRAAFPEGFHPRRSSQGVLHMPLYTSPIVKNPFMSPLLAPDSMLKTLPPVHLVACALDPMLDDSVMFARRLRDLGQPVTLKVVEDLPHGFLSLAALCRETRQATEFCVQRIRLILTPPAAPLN
Experimental: • Figure 1. Structure of compounds 1 to 3 (reference) and compound 4 (atglistatin) and effect on ATGL activity. For determination of lipase activity, lysates of E. coli overexpressing recombinant strep-tagged ATGL and CGI-58 were incubated with a substrate containing radiolabeled [9,10-3H(N)]-triolein. Subsequently, FA were extracted and quantified by liquid scintillation counting. Lysates of cells expressing empty vector were set as blank. Inhibitors were solubilized in DMSO and added at the indicated concentrations. DMSO alone was used as negative control. (A) Structure and IC50 values of compounds 1-4. (B) Dose-dependent inhibition of ATGL in the presence of compound 3 and 4. […] (C) Lineweaver-Burk plots for kinetic analysis of ATGL inhibition. Experiments were performed at varying concentrations of substrate (0.05 - 3 mM) in presence and absence of compound 4 (Atglistatin). […] Lipase activity of ATGL, HSL, lipoprotein lipase, and pancreatic lipase was determined using triolein as substrate. MGL activity was detected in the presence of rac-(1,3)-monooleoylglycerol as substrate. […] The release of FA (A) and glycerol (B) in the media was determined using commercial kits. […] At the indicated timepoints blood was taken retroorbitally and plasma parameters were measured using commercial kits. […] 8 h after gavage blood was taken retroorbitally and plasma parameters were measured using commercial kits. […]

CN(C)C(=O)Nc1cccc(-c2ccc(N(C)C)cc2)c1 [Atglistatin, atglistatin]
cell viability (cytotoxicity assays) (AML-12 mouse hepatocytes): only a very moderate decrease in cell viability | effect on HSL activity (murine HSL): only minor effects
